Data reported in patent US20120015907A1, “Furopyridine compounds and uses thereof” (NOVARTIS AG, priority 2010, published 2012).

Columns and labels:
HCV polymerase = molecular target: T1, HCV polymerase (Hepatitis C virus genotype 1b, UniProt Q9WMX2); assay: biochemical; settings: polymerase assay of Biological Example 1; read-out: NS5B polymerase IC50
T1 construct: (His)6 (C)

[1] = tested on: HCV replicon I389luc-ubi-neo/NS3-3'/ET in ET (Huh-lucubineo-ET) cells; assay: Replicon assay (Biological Example 2), luciferase read-out; assay type: cell-based; settings: Hepatitis C virus, luciferase activity 48 hours after compound addition
Protocol: A cell line, ET (Huh-lucubineo-ET) is used for screening of compounds for inhibiting HCV RNA dependent RNA polymerase. The ET cell line is stably transfected with RNA transcripts harboring a I389luc-ubi-neo/NS3-3′/ET; replicon with firefly luciferase-ubiquitin-neomycin phosphotransferase fusion protein and EMCV-IRES driven NS3-5B polyprotein containing the cell culture adaptive mutations (E1202G; […]; K1846T) (Krieger at al, 2001 and unpublished). The ET cells are grown in DMEM (Dulbeco's Modified Eagle's Medium), supplemented with 10% fetal calf serum, 2 mM Glutamine, Penicillin (100 IU/mL)/Streptomycin (100 μg/mL), 1× nonessential amino acids, and 250 μg/mL G418 (“Geneticin”). Reagents are all available through Life Technologies (Bethesda, Md.). The cells are plated at 0.5-1.0×10^4 cells/well in the 96 well plates and incubated for 24 hrs before adding test compound. The compounds are added to the cells to achieve a final concentration of 0.1 nM to 50 μM and a final DMSO (dimethylsulfoxide) concentration of 0.5%. Luciferase activity is measured 48 hours later by adding a lysis buffer and the substrate (Catalog number Glo-lysis buffer E2661 and Bright-Glo luciferase system E2620 Promega, Madison, Wis.). Cells should not be too confluent during the assay. Percent inhibition of replication data is plotted relative to no compound control. To determine the EC50 (effective concentration at which 50% of the maximum inhibition is observed), a 10 point, 3-fold serial dilution for each compound is used, which spans a concentration range of 1000 fold. EC50 values were calculated by fitting % inhibition at each concentration to the following equation:
% inhibition=100%/[(EC50/[I])^b+1]
where b is Hill's coefficient.

| Structure (SMILES) | IC50 (HCV polymerase) | IC50 [1] |
| --- | --- | --- |
| CCc1cc2c(C(=O)NC)c(-c3ccc(F)cc3)oc2nc1N(CCCCN1CCC[C@H]1C(=O)O)S(C)(=O)=O [Example 23.98, (S)-1-(4-(N-(5-ethyl-2-(4-fluorophenyl)-3-(methylcarbamoyl)furo[2,3-b]pyridin-6-yl)methylsulfonamido)butyl) pyrrolidine-2-carboxylic acid] | 0.166 µM | ≥ 5 µM |
| CNC(=O)c1c(-c2ccc(Cl)cc2)oc2nc(N(CCCCS(C)(=O)=O)S(C)(=O)=O)c(I)cc12 [Example 18.995, 2-(4-chlorophenyl)-5-iodo-N-methyl-6-(N-(4-(methylsulfonyl)butyl)methylsulfonamido)furo[2,3-b]pyridine-3-carboxamide] | 0.014 µM | ≤ 0.1 µM |
| CNC(=O)c1c(-c2ccc(C)cc2)oc2nc(N(CCCC(C(=O)O)c3ccccc3)S(C)(=O)=O)c(C3CC3)cc12 (stereo not drawn) [Example 28.5, 5-(N-(5-cyclopropyl-3-(methylcarbamoyl)-2-p-tolylfuro[2,3-b]pyridin-6-yl)methylsulfonamido)-2-phenylpentanoic acid] | 0.001 µM | ≤ 0.1 µM |
| CCc1cc2c(C(=O)NC)c(-c3ccc(F)cc3)oc2nc1N(CCCC1C(=O)CCS1(=O)=O)S(C)(=O)=O (stereo not drawn) [Example 23.99, 5-Ethyl-2-(4-fluoro-phenyl)-6-{methanesulfonyl-[3-(1,1,3-trioxo-tetrahydrothiophen-2-yl)-propyl]-amino}-furo[2,3-b]pyridine-3-carboxylic acid methylamide] | 0.026 µM | ≤ 0.1 µM |
| CNC(=O)c1c(-c2ccc(F)cc2)oc2nc(N(CCCC3CCCS3(=O)=O)S(C)(=O)=O)c(C3CC3)cc12 (single isomer, unassigned) [Example 24.5, 5-Cyclopropyl-6-{[3-(1,1-dioxo-tetrahydrothiophen-2-yl)-propyI]-methanesulfonyl-amino}-2-(4-fluoro-phenyl)-furo[2,3-b]pyridine-3-carboxylic acid methylamide] | 0.001 µM | ≤ 0.1 µM |
| CNC(=O)c1c(-c2ccc(F)cc2)oc2nc(N(CCC(C)O)S(C)(=O)=O)c(C3CC3)cc12 (stereo not drawn) [Example 26.5, 5-cyclopropyl-2-(4-fluorophenyl)-6-(N-(3-hydroxybutyl)methylsulfonamido)-N-methylfuro[2,3-b]pyridine-3-carboxamide] | 0.01 µM | ≤ 0.1 µM |
| CNC(=O)c1c(-c2ccc(F)cc2)oc2nc(N(CCCC(C)O)S(C)(=O)=O)c(C3CC3)cc12 (stereo not drawn) [Example 26.4, 5-cyclopropyl-2-(4-fluorophenyl)-6-(N-(4-hydroxypentyl)methylsulfonamido)-N-methylfuro[2,3-b]pyridine-3-carboxamide] | 0.005 µM | ≤ 0.1 µM |
| CNC(=O)c1c(-c2ccc(F)cc2)oc2nc(N(C)S(C)(=O)=O)c(C(C)(O)CO)cc12 (stereo not drawn) [Example 9, 5-(1,2-dihydroxypropan-2-yl)-2-(4-fluorophenyl)-N-methyl-6-(N-methylmethylsulfonamido)furo[2,3-b]pyridine-3-carboxamide] | 2.32 µM | ≥ 5 µM |
| CNC(=O)c1c(-c2ccc(C)cc2)oc2nc(N(CCC3CCS(=O)(=O)C3)S(C)(=O)=O)c(C3CC3)cc12 (stereo not drawn) [Example 26.1, 5-Cyclopropyl-6-{[2-(1,1-dioxo-tetrahydro-thiophen-3-yl)-ethyl]-methanesulfonyl-amino}-2-p-tolyl-furo[2,3-b]pyridine-3-carboxylic acid methylamide] | 0.001 µM | ≤ 0.1 µM |
| CNC(=O)c1c(-c2ccc(F)cc2)oc2nc(N(C)S(C)(=O)=O)c(CCCCS(=O)(=O)CCC(=O)O)cc12 [Example 4.91, 3-(4-(2-(4-fluorophenyl)-3-(methylcarbamoyl)-6-(N-methylmethylsulfonamido)furo[2,3-b]pyridin-5-yl)butylsulfonyl)propanoic acid] | 0.01 µM | ≥ 5 µM |
| CNC(=O)c1c(-c2ccc(F)cc2)oc2nc(N(C)S(C)(=O)=O)c(C#CCCC(=O)O)cc12 [Example 5, 5-(2-(4-fluorophenyl)-3-(methylcarbamoyl)-6-(N-methylmethylsulfonamido)furo[2,3-b]pyridin-5-yl)pent-4-ynoic acid] | 0.256 µM | ≥ 5 µM |
| CNC(=O)c1c(-c2ccc(Cc3ccccc3)cc2)oc2nc(N(CCCCC(=O)O)S(C)(=O)=O)c(C3CC3)cc12 [Example 27.6, 5-(N-(2-(4-benzylphenyl)-5-cyclopropyl-3-(methylcarbamoyl)furo[2,3-b]pyridin-6-yl)methylsulfonamido) pentanoic acid] | 0.001 µM | ≤ 0.1 µM |
| CNC(=O)c1c(-c2ccc(F)cc2)oc2nc(N(CCCC3CCCS3(=O)=O)S(C)(=O)=O)c(C3CC3)cc12 (stereo not drawn) [Example 24.6, 5-Cyclopropyl-6-{[3-(1,1-dioxo-tetrahydrothiophen-2-yl)-propyl]-methanesulfonyl-amino}-2-(4-fluoro-phenyl)-furo[2,3-b]pyridine-3-carboxylic acid methylamide] | – | ≤ 0.1 µM |
| CNC(=O)c1c(-c2ccc(F)cc2)oc2nc(N(C)S(C)(=O)=O)c(CCCCCNC(=O)OC(C)(C)C)cc12 [Example 14.1, tert-butyl 5-(2-(4-fluorophenyl)-3-(methylcarbamoyl)-6-(N-methylmethylsulfonamido)furo[2,3-b]pyridin-5-yl)pentylcarbamate] | – | ≤ 0.1 µM |
| CNC(=O)c1c(-c2ccc(C)cc2)oc2nc(N(CCCCC3(C(=O)O)CCOCC3)S(C)(=O)=O)c(C3CC3)cc12 [Example 29.95, 4-(4-(N-(5-cyclopropyl-3-(methylcarbamoyl)-2-p-tolylfuro[2,3-b]pyridin-6-yl)methylsulfonamido)butyl) tetrahydro-2H-pyran-4-carboxylic acid] | 0.003 µM | – |
| CNC(=O)c1c(-c2ccc(F)cc2)oc2nc(N(C)S(C)(=O)=O)c(CCCCC(=O)N3CCC[C@H]3C(=O)OC)cc12 [Example 4.6, (S)-methyl 1-(5-(2-(4-fluorophenyl)-3-(methylcarbamoyl)-6-(N-methylmethylsulfonamido)furo[2,3-b]pyridin-5-yl)pentanoyl)pyrrolidine-2-carboxylate] | 0.113 µM | – |
| CNC(=O)c1c(-c2ccc(F)cc2)oc2nc(N(C)S(C)(=O)=O)c(CCCCC(=O)N3CCC[C@H]3C(N)=O)cc12 [Example 4.8, (S)-5-(5-(2-carbamoylpyrrolidin-1-yl)-5-oxopentyl)-2-(4-fluorophenyl)-N-methyl-6-(N-methylmethylsulfonamido)furo[2,3-b]pyridine-3-carboxamide] | 0.051 µM | – |
| CNC(=O)c1c(-c2ccc(C)cc2)oc2nc(N(CCCC(CC#N)C(=O)OC)S(C)(=O)=O)c(C3CC3)cc12 (stereo not drawn) [Example 29.9998, methyl 2-(cyanomethyl)-5-(N-(5-cyclopropyl-3-(metfiylcarbamoyl)-2-p-tolylfuro[2,3-b]pyridin-6-yl)methylsulfonamido) pentanoate] | 0.005 µM | – |
| CNC(=O)c1c(-c2ccc(F)cc2)oc2nc(N(C)S(C)(=O)=O)c(CC3CO3)cc12 (stereo not drawn) [Example 12, 2-(4-fluorophenyl)-N-methyl-6-(N-methylmethylsulfonamido)-5-(oxiran-2-ylmethyl)furo[2,3-b]pyridine-3-carboxamide] | 0.734 µM | – |
| CNC(=O)c1c(-c2ccc(C)cc2)oc2nc(N(CCCc3nn[nH]n3)S(C)(=O)=O)c(C3CC3)cc12 [Example 29.92, 6-(N-(3-(2H-tetrazol-5-yl)propyl)methylsulfonamido)-5-cyclopropyl-N-methyl-2-p-tolylfuro[2,3-b]pyridine-3-carboxamide] | 0.002 µM | – |
| CCc1cc2c(C(=O)NC)c(-c3ccc(F)cc3)oc2nc1N(CCN(C)S(=O)(=O)c1ccccc1)S(C)(=O)=O [Example 22.995, 5-ethyl-2-(4-fluorophenyl)-N-methyl-6-(N-(2-(N-methylphenylsulfonamido)ethyl)methylsulfonamido)furo[2,3-b]pyridine-3-carboxamide] | 0.024 µM | – |
| CNC(=O)c1c(-c2ccc(C)cc2)oc2nc(N(CCOCCCC(=O)O)S(C)(=O)=O)c(C3CC3)cc12 [Example 23.999998, 4-(2-(N-(5-cyclopropyl-3-(methylcarbamoyl)-2-p-tolylfuro[2,3-b]pyridin-6-yl)methylsulfonamido)ethoxy)butanoic acid] | 0.005 µM | – |
| CNC(=O)c1c(-c2ccc(C)cc2)oc2nc(N(CCCC3CCCC3C(=O)O)S(C)(=O)=O)c(C3CC3)cc12 (stereo not drawn) [Example 29.4, 2-(3-(N-(5-cyclopropyl-3-(methylcarbamoyl)-2-p-tolylfuro[2,3-b]pyridin-6-yl)methylsulfonamido)propyl) cyclopentanecarboxylic acid] | 0.003 µM | – |
| CNC(=O)c1c(-c2ccc(C)c(F)c2)oc2nc(N(CCCCC(=O)O)S(C)(=O)=O)c(C3CC3)cc12 [Example 29.999999, 5-(N-(5-cyclopropyl-2-(3-fluoro-4-methylphenyl)-3-(methylcarbamoyl)furo[2,3-b]pyridin-6-yl)methylsulfonamido) pentanoic acid] | 0.002 µM | – |
